Data set [1] has as its target T1, Cytochrome P450 2C19 (Homo sapiens, UniProt P33261). The data set is described as follows: Activity of human recombinant CYP2C19 assessed as 3-((1H-imidazol-2-yl)methyl)-6-(1-hydroxy-2-methylpropan-2-yl)-2,4-dimethylphenol formation at 50 uM in presence of NADPH by LC-MS/MS method. Type of data set: ADME. The following applies: recombinant enzyme.
The target in data set [2] is T1, Cytochrome P450 2C19. The data set is described as follows: Activity of human recombinant CYP2C19 assessed as (S)-2-amino-5-((R)-3-(5-tert-butyl-2-((4,5-dihydro-1H-imidazol-2-yl)methyl)-4-hydroxy-3-methylbenzylthio)-1-(carboxymethylamino)-1-oxopropan-2-ylamino)-5-oxopentanoic acid formation at 50 uM in presence of NADPH and glutathione by LC-MS/MS method. Type of data set: ADME. Conditions: recombinant enzyme.

Data set [3] addresses T2, Cytochrome P450 2B6 (Homo sapiens, UniProt P20813).
T2 sequence (P20813 whole entry): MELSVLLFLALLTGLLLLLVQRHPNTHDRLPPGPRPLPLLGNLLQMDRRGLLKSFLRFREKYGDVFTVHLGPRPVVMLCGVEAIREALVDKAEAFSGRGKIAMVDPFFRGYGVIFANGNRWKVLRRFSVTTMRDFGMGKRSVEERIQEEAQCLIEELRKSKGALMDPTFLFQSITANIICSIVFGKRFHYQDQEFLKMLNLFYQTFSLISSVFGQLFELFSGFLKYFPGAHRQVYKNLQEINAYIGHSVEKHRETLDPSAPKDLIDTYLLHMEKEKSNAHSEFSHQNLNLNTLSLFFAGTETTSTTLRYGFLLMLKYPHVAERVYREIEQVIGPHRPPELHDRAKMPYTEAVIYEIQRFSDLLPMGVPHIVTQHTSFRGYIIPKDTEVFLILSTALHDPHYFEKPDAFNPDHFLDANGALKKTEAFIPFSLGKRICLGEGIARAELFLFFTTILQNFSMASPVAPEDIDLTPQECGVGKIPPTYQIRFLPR
Put plainly: Activity of human recombinant CYP2B6 assessed as metabolite formation at 50 uM in presence of NADPH by LC-MS/MS method. The data set is classed as ADME. The following applies: recombinant enzyme.

Data set [4] addresses T3, Cytochrome P450 2C8 (Homo sapiens, UniProt P10632).
T3 sequence (P10632 whole entry): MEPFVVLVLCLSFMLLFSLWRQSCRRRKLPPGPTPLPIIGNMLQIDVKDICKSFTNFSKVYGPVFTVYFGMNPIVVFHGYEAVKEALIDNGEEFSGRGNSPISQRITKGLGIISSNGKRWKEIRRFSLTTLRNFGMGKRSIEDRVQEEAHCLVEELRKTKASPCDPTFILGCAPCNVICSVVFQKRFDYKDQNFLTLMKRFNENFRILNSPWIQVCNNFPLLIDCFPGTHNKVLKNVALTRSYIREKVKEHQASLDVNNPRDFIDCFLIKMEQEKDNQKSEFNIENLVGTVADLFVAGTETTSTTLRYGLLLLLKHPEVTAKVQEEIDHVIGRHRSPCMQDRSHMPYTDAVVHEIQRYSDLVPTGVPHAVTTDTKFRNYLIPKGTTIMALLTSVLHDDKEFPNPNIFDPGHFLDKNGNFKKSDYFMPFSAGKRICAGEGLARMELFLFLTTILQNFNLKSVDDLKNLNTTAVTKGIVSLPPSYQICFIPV
The data set is described as follows: Activity of human recombinant CYP2C8 assessed as metabolite formation at 50 uM in presence of NADPH by LC-MS/MS method. The data set is classed as ADME. Conditions: recombinant enzyme.

For data set [5], the target named is Cytochrome P450 2C9 (Homo sapiens, UniProt P11712). Put plainly: Activity of human recombinant CYP2C9 assessed as metabolite formation at 50 uM in presence of NADPH by LC-MS/MS method. Type of data set: ADME. Conditions: recombinant enzyme.
Data set [6] concerns the target Cytochrome P450 2E1 (Homo sapiens, UniProt P05181). Put plainly: Activity of human recombinant CYP2E1 assessed as metabolite formation at 50 uM in presence of NADPH by LC-MS/MS method. Type of data set: ADME. The following applies: recombinant enzyme.
Data set [7] addresses Cytochrome P450 2D6 (Homo sapiens, UniProt P10635). Put plainly: Activity of human recombinant CYP2D6 assessed as metabolite formation at 50 uM in presence of NADPH by LC-MS/MS method. Type of data set: ADME. Conditions: recombinant enzyme.
Data set [8] concerns the target Cytochrome P450 3A4 (Homo sapiens, UniProt P08684). Put plainly: Activity of human recombinant CYP3A4 assessed as metabolite formation at 50 uM in presence of NADPH by LC-MS/MS method. The data set is classed as ADME. Conditions: recombinant enzyme.
Data set [9] is described as follows: Drug metabolism in NADPH supplemented rat liver S9 fraction assessed as 3-((4,5-dihydro-1H-imidazol-2-yl)methyl)-6-(1-hydroxy-2-methylpropan-2-yl)-2,4-dimethylphenol formation at 50 uM in presence of glutathione by LC-MS/MS method. Type of data set: ADME, subcellular. The following applies: s9, 50 µM.
Data set [10] is described as follows: Drug metabolism in NADPH supplemented rat liver S9 fraction assessed as 3-((1H-imidazol-2-yl)methyl)-6-(1-hydroxy-2-methylpropan-2-yl)-2,4-dimethylphenol formation at 50 uM in presence of glutathione by LC-MS/MS method. Conditions: s9, 50 µM. Type of data set: ADME, subcellular.
A short description of data set [11]: Drug metabolism in NADPH supplemented rabbit liver S9 fraction assessed as 3-((4,5-dihydro-1H-imidazol-2-yl)methyl)-6-(1-hydroxy-2-methylpropan-2-yl)-2,4-dimethylphenol formation at 50 uM in presence of glutathione by LC-MS/MS method. Type of data set: ADME, subcellular, Oryctolagus cuniculus. The following applies: s9, 50 µM.
The nature of data set [12]: Drug metabolism in NADPH supplemented rabbit liver S9 fraction assessed as 3-((1H-imidazol-2-yl)methyl)-6-(1-hydroxy-2-methylpropan-2-yl)-2,4-dimethylphenol formation at 50 uM in presence of glutathione by LC-MS/MS method. The data set is classed as ADME, subcellular, Oryctolagus cuniculus. Conditions: s9, 50 µM.
Data set [13] in a line: Drug metabolism in NADPH supplemented rabbit liver S9 fraction assessed as 3-((1H-imidazol-2-yl)methyl)-6-tert-butyl-2,4-dimethylphenol formation at 50 uM in presence of N-acetyl cysteine by LC-MS/MS method. The data set is classed as ADME, subcellular, Oryctolagus cuniculus. Conditions: s9, 50 µM.
A short description of data set [14]: Drug metabolism in NADPH supplemented rabbit liver microsomes fraction assessed as 3-((1H-imidazol-2-yl)methyl)-6-tert-butyl-2,4-dimethylphenol formation at 50 uM after 1 hr by LC-MS/MS method. The data set is classed as ADME, Oryctolagus cuniculus.
Data set [15] relates to Liver microsome. Put plainly: Drug metabolism in NADPH supplemented rat liver microsomes fraction assessed as 3-((4,5-dihydro-1H-imidazol-2-yl)methyl)-6-(1-hydroxy-2-methylpropan-2-yl)-2,4-dimethylphenol formation at 50 uM after 1 hr by LC-MS/MS method. The data set is classed as ADME. On the technique in general: Microsomes from liver hold many membrane-bound enzymes, among them those of drug oxidation.

The test system of data set [16] is Liver microsome. Put plainly: Drug metabolism in NADPH supplemented human liver microsomes fraction assessed as 3-((1H-imidazol-2-yl)methyl)-6-tert-butyl-2,4-dimethylphenol formation at 50 uM after 1 hr by LC-MS/MS method. Type of data set: ADME.
The nature of data set [17]: Drug metabolism in NADPH supplemented human liver S9 fraction assessed as 3-((1H-imidazol-2-yl)methyl)-6-(1-hydroxy-2-methylpropan-2-yl)-2,4-dimethylphenol formation at 50 uM in presence of glutathione by LC-MS/MS method. Type of data set: ADME, subcellular. Conditions: s9, 50 µM.
The nature of data set [18]: Drug level in NADPH supplemented rabbit liver S9 fraction treated with 50 uM oxymetazoline assessed as compound-N-acetyl cysteine conjugate formation in presence of N-acetyl cysteine by LC-MS/MS method. The data set is classed as ADME, subcellular, Oryctolagus cuniculus.
In data set [19] the target is T1, Cytochrome P450 2C19. The data set is described as follows: Activity of human recombinant CYP2C19 assessed as 3-((1H-imidazol-2-yl)methyl)-6-tert-butyl-2,4-dimethylphenol formation at 50 uM in presence of NADPH by LC-MS/MS method. The data set is classed as ADME. Conditions: recombinant enzyme.

Each structure is given as a SMILES string.

T1 sequence (P33261 whole entry): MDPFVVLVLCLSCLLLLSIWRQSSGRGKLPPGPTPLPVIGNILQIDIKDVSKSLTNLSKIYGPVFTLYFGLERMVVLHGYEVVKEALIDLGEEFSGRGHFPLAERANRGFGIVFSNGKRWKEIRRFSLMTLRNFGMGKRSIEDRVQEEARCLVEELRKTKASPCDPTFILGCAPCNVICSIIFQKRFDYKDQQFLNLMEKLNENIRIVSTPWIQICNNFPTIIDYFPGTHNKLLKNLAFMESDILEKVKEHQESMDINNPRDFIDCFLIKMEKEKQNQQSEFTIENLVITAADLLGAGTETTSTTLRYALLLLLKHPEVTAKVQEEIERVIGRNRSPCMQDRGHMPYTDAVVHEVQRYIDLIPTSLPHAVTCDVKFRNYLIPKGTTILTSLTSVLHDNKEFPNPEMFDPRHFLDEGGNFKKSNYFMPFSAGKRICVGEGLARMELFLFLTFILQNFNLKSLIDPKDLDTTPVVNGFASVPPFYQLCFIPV
Chain of Cytochrome P450 2C9 (P11712 whole entry): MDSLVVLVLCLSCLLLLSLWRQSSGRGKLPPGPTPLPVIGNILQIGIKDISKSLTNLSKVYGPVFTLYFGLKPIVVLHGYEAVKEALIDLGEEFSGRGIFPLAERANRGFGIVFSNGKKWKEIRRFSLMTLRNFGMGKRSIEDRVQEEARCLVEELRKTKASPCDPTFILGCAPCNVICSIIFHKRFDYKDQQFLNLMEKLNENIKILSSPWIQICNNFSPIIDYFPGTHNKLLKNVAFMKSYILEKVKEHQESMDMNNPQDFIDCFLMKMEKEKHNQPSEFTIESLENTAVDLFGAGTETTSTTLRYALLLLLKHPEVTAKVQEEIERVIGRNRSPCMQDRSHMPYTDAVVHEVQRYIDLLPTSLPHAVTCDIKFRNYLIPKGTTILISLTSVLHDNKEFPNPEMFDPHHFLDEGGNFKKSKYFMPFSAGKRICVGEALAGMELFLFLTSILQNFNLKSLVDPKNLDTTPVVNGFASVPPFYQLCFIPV
Chain of Cytochrome P450 2D6 (P10635 whole entry): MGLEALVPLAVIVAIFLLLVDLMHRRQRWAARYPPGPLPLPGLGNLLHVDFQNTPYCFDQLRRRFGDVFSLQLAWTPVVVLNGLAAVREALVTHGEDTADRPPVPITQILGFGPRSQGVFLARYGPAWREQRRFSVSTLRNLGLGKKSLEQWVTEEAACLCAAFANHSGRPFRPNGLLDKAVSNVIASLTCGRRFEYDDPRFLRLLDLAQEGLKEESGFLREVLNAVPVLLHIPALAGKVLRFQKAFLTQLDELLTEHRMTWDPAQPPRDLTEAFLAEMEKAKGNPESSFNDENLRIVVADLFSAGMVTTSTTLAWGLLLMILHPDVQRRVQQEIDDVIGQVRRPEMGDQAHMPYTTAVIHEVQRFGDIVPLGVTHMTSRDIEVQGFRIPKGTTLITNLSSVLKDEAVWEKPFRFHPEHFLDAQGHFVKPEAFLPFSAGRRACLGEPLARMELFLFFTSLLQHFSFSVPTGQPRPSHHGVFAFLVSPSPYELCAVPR
Chain of Cytochrome P450 3A4 (P08684 whole entry): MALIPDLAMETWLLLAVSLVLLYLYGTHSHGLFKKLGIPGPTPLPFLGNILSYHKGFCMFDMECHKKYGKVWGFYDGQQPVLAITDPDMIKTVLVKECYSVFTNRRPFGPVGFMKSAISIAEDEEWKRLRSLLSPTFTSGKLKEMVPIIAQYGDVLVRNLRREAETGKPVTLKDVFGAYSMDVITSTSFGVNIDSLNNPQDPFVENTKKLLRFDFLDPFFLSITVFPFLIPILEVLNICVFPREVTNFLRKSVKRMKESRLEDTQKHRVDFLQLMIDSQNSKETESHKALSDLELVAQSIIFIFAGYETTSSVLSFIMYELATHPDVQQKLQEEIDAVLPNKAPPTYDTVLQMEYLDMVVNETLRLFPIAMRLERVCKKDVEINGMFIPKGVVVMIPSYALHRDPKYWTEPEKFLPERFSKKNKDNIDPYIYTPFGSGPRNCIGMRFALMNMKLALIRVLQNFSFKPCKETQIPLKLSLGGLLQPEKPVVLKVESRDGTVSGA
Chain of Cytochrome P450 2E1 (P05181 whole entry): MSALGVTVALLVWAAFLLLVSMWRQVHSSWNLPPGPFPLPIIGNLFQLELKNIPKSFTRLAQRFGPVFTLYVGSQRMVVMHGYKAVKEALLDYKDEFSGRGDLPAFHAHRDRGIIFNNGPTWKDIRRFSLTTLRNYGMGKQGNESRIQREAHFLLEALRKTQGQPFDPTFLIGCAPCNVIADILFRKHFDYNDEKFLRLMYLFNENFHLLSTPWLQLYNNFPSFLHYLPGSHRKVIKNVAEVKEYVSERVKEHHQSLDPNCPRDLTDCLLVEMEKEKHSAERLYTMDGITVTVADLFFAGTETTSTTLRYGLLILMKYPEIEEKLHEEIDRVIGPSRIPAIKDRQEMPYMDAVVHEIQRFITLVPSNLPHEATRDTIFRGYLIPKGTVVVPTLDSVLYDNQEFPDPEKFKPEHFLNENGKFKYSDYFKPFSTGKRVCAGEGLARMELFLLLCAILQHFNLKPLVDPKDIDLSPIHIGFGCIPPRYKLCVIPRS

`Cc1cc(C(C)(C)C)c(O)c(C)c1CC1=NCCN1` [OXYMETAZOLINE]: the Drug metabolism entry was “metabolite_detected” in data set [1]; “metabolite_detected” in data set [2]; “metabolite_not_detected” in data set [3]; “metabolite_not_detected” in data set [4]; “metabolite_not_detected” in [5]; “metabolite_not_detected” in data set [6]. The Drug metabolism result in [7] is given as “metabolite_not_detected”; in data set [8] it was “metabolite_not_detected”; in data set [9], “metabolite_detected”; in data set [10] it was “metabolite_detected”; in [11], “metabolite_detected”; in [12], “metabolite_detected”. Also, the Drug metabolism result in [13], in data set [14], in data set [15], in [16], in [17] and in [18] was “metabolite_detected” each time. The Drug metabolism entry in data set [19] is reported as “metabolite_detected”.

For the origin of these results see ChEMBL document CHEMBL3525902, “In vitro metabolism of oxymetazoline: evidence for bioactivation to a reactive metabolite” (Drug Metab Dispos, 2011).
